Experiments:
[1] = molecular target: Bcl-2 protein (Homo sapiens, UniProt P10415); test: ELISA assay, competitive binding to Bcl-2 protein (biotin-Bim/streptavidin plate); conditions: method calculates average IC50, read-out: Bcl-2 binding constants
Method: (§1) The present inventors used fluorescence polarization assay to detect the bonding force between the protein and the compounds in a previous study (PCT/CN2010/075521). […] ELISA assay was used to detect the bonding force between the compounds and the protein in this application.
(§2) Biotinylated Bim peptide was diluted to 0.09 μg/mL in SuperBlock blocking buffer in PBS and incubated for 1.5 h in 96-well microtiter plates already coated with streptavidin to allow the formation of the complex between Biotin-Bim and streptavidin. All incubations were performed at room temperature unless otherwise noted. Each inhibitor was first dissolved in pure DMSO to obtain a 10 mM stock solution. For each tested inhibitor, different concentrations of the inhibitor were incubated with 20 nM His-tagged Mcl-1 protein in PBS for 1 h with a final DMSO concentration of 4%. The plates were washed three times with PBS containing 0.05% Tween-20. The inhibitor and protein mixture (100 μL) were transferred to the plate containing the biotin-Bim/streptavidin complex and incubated for 2 h. The plate was then washed as before and mouse anti-His antibody that conjugated with horseradish peroxidase was added into the wells and incubated for 1 h. The plate was then washed with PBS containing 0.05% Tween-20. Finally, TMB was added to each well; the enzymatic reaction was stopped after 30 min by addition of H2SO4 (100 μL, 2M). Absorbances were measured with a TECAN GENios (Swiss, TECAN) microplate reader using a wavelength of 450 nm. Three independent experiments were performed with each inhibitor to calculate average IC50 value and standard deviation (SD).
(§3) The BH3 analogous degrees of other 11 compounds were detected by using the experimental method as described above. The protein binding constant (binding constant in table 1) between them and Bcl-2 and Mcl-1 proteins were also on nM grade.

[2] = molecular target: His-tagged Mcl-1 protein (Homo sapiens, UniProt Q07820); test: ELISA assay, competitive binding to Mcl-1 protein (biotin-Bim/streptavidin plate); conditions: 20 nM His-tagged Mcl-1, method calculates average IC50, read-out: Mcl-1 binding constants
Method: as §1, §2, §3

[3] = molecular target: T1, interaction between Bcl-2 and Bax (Homo sapiens, UniProt P10415); test: Intracellular FRET, Bcl-2-CFP/Bax-YFP in Hela cells; assay type: cell-based; conditions: for Time (time period after which the interaction between Bcl-2 and Bax was interfered): at the concentration given
T1 construct: expressed in transfected cells; host or cells: Hela cells
Method: 2 μg of Bcl-2-CFP and Bax-YFP plasmids were transfected separately or simultaneously into Hela cells by using calcium phosphate coprecipitation method, 24 hours later, the cells were inoculated in a 6-well plate (2×10^5 cells/well), and the compound 1 to be detected dissolved in DMSO was added there into until the final concentration (2, 5, 10 and 15 μM) was achieved. 24 hours later (please refer to FIG. 5); the cells were washed with PBS for three times. The fluorescence value was detected by GENIOS fluorescence enzyme-labelled meter (TECAN, Swiss). In time-dependent experiment, the transfected cells were inoculated in a 6-well plate, after that, 40 μM of the compound was added thereinto. 3, 6 and 24 hours later (FIG. 6), the fluorescence intensities were detected by plate reader. As for the cell group in which only Bcl-2-CFP plasmid was transfected, the values at 475 nm emission wave length and 433 nm excitation wave length were recorded. As for the cell group in which only Bax-YFP plasmid was transfected, the values at 527 nm emission wave length and 505 nm excitation wave length were recorded. As for the cell group in which Bcl-2-CFP and Bax-YFP plasmids were co-transfected, the values at 527 nm and 475 emission wave lengths and 433 nm excitation wave length were recorded. The ratio of fluorescence intensity at 527 nm and 475 nm emission wave lengths was FRET. The FRET for the control group in which the plasmid was solely transfected was set as 1.0. […] In the cotransfected cells, the FRET increased up to 2.0 due to the interaction of Bcl-2 protein and Bax protein, and that the interference to the interaction between the two proteins increased and FRET decreased with the increase of the drug concentration and time. The cellular vitality was detected by MTT method. When the concentration of the compound reached 1 μM, the interaction between Bcl-2 and Bax can be interfered after 2 hours, and the results appeared concentration-time dependent trend.
Wherein the concentration and time meant that the detected compound interfered with the interaction between Bcl-2 and Bax at the concentration for the time period.

[4] = test system: BAX shift towards the chondriosome; test: Co-localization between Bax protein and chondriosome, Bax-YFP in MCF-7 cells; assay type: cell-based; conditions: for Doses (concentration at which the compound drove the BAX to shift towards the chondriosome): Bax-YFP/Mito Tracker Red; for Time (time period after which BAX shifted towards the chondriosome): at the concentration given
Method: 5 μg of Bax-YFP plasmid was transfected into MCF-7 cells by using calcium phosphate coprecipitation method, 24 hours later, the cells were inoculated in a 6-well plate (0.2×10^6 cells/well), and 10 μM of the compound 1 to be detected was added thereinto. 6 hours later, the cells were washed with PBS and hatched away from light with 50 nM Mito Tracker Red CMXRos (chondriosome specific probes; red) for 10 minutes. Then the cells were washed with PBS for three times, and the fluorescent image was scanned with Radiance2000 laser confocal microscopy (Bio-Rad, USA). Meanwhile, dual channel scanning was carried out, one channel was used to scan the green fluorescence of Bax-YFP, and the other channel was used to scan the red fluorescence of the CMXRos probe for indicating the chondriosome. […] When the Bax protein was localized on the chondriosome, the green and red fluorescence was superimposed into orange, as shown in FIG. 7.
Other 24 compounds were detected by the same experimental method as described above. […] Wherein the concentration and time meant that the detected compound simulated the BH3-only protein and driven the BAX to shift towards the chondriosome at the concentration for the time period.

[5] = test system: MCF-7 cells; test: Cytotoxicity by MTT, cells without plasmid transfection; assay type: cell-based; conditions: Homo sapiens, MCF7; MCF-7, MTT, 48 hours; read-out: IC50 value in untransfected cells
Method: (§4) 3 μg of BAX/BAK interfering plasmid was transfected into MCF-7 cells by using calcium phosphate coprecipitation method, 24 hours later, the cells were collected. The expressions after the BAX and BAK proteins interfered with RNA was detected by Western, and the cell groups without plasmid transfection were treated similarly and were set as the control group. The transfected cells were inoculated in a 96-well plate (1×10^5 cells/well), the control experiment of the cell group without plasmid transfection was carried out in parallel. The compound 1 to be detected was added thereinto according to the concentration gradient designed before the experiment. 48 hours later, the cellular vitality was detected by MTT. The experimental results were shown in FIG. 9, Gossypol as nonspecific BH3 analogue was treated in parallel.
(§5) Other 24 compounds were also detected by the same experimental method as described above, the differences of IC50 values between the transfected cells and the without plasmid transfection cells were compared.

[6] = test system: MCF-7 cells transfected with BAX/BAK interfering plasmid; test: Cytotoxicity by MTT, cells transfected with BAX/BAK interfering plasmid; assay type: cell-based; conditions: Homo sapiens, MCF7; MCF-7 with BAX/BAK interfering plasmid, MTT, 48 hours
Method: as §4, §5

[7] = test system: Bcl-2; test: Western blotting, semiquantitative analysis of Bcl-2 protein bands; assay type: cell-based; conditions: control = 1, tumor cells
Method: (§6) The interest protein was detected by the corresponding antibody. The expression of the interest protein in the cells was detected by horseradish peroxidase-labeled secondary antibodies in combination with ECL coloration method. […] The concentration of the protein bands in the Western images were carried out semiquantitative analysis and normalization treatment with KODAK Gel Logic 1500 imaging system software.

[8] = test system: Mcl-1; test: Western blotting, semiquantitative analysis of Mcl-1 protein bands; assay type: cell-based; conditions: control = 1, tumor cells
Method: as §6

Chain of His-tagged Mcl-1 protein (Q07820 whole entry): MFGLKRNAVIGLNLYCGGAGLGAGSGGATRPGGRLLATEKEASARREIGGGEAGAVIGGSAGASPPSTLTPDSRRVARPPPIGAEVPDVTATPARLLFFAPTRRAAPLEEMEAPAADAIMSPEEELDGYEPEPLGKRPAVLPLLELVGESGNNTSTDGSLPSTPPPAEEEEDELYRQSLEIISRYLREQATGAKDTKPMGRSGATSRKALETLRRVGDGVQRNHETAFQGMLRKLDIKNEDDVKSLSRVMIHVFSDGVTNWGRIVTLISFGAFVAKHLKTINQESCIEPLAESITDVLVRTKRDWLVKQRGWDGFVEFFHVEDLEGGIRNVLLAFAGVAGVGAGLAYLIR
Chain of Bcl-2 protein (P10415 whole entry, species assumed): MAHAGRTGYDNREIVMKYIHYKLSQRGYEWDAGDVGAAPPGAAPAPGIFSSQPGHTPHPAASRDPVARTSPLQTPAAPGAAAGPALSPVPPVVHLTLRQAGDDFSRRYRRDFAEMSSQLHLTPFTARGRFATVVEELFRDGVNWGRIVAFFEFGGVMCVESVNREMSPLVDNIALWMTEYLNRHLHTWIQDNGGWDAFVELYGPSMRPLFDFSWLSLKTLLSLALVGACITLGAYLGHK
T1 sequence (P10415 whole entry): as the sequence (P10415 whole entry, species assumed) above

Row | Structure (SMILES) | IC50 [1] [nM] | IC50 [2] [nM] | Doses (concentration at which the compound interfered with the interaction between Bcl-2 and Bax) [3] [µM] | Time (time period after which the interaction between Bcl-2 and Bax was interfered) [3] [h] | Doses (concentration at which the compound drove the BAX to shift towards the chondriosome) [4] [µM] | Time (time period after which BAX shifted towards the chondriosome) [4] [h] | IC50 [5] [nM] | IC50 [6] [nM] | concentration of the protein bands (semiquantitative, normalized), Bcl-2 ([7]; 6 h) | concentration of the protein bands (semiquantitative, normalized), Bcl-2 ([7]; 12 h) | concentration of the protein bands (semiquantitative, normalized), Bcl-2 ([7]; 18 h) | concentration of the protein bands (semiquantitative, normalized), Bcl-2 ([7]; 24 h) | concentration of the protein bands (semiquantitative, normalized), Mcl-1 ([8]; 2 h) | concentration of the protein bands (semiquantitative, normalized), Mcl-1 ([8]; 6 h) | melting point [°C]
1 | CCCCNC1=C2C(=NC1=O)c1cccc3c(Sc4ccc(Br)cc4)ccc2c13 [Compound 7, 3-(4-Bromo-phenylsulfanyl)-9-butylamino-acenaphtho[1,2-b]pyrrol-8-one] | 66 | 14 | 0.3 | 3 | 0.5 | 3 | 1200 | > 50000 | 0.99 | 0.99 | 0.51 | 0.20 | 0.68 | 0.32 | 245 to 246
2 | O=C1N=C2C(=C1NCCCc1ccccc1)c1ccc(Sc3ccc(Br)cc3)c3cccc2c13 [Compound 8, 3-(4-Bromo-phenylsulfanyl)-9-(3-phenyl-propylamino)-acenaphtho[1,2-b]pyrrol-8-one] | 6 | 4 | 0.1 | 1 | 0.1 | 1 | 1000 | > 50000 | 0.99 | 0.99 | 0.42 | 0.10 | 0.52 | 0.22 | 272 to 273
3 | CCCCNC1=C2C(=NC1=O)c1cccc3c(N4CCSCC4)ccc2c13 [Compound 9, 9-Butylamino-3-thiomorpholin-4-yl-acenaphtho[1,2-b]pyrrol-8-one] | 63 | 16 | 0.4 | 2 | 0.6 | 3 | 1300 | > 50000 | 0.99 | 0.99 | 0.49 | 0.20 | 0.60 | 0.29 | 239 to 240
4 | O=C1N=C2C(=C1NCCCc1ccccc1)c1ccc(N3CCSCC3)c3cccc2c13 [Compound 10, 9-(3-Phenyl-propylamino)-3-thiomorpholin-4-yl-acenaphtho[1,2-b]pyrrol-8-one] | 17 | 5 | 0.1 | 2 | 0.2 | 1 | 500 | > 50000 | 0.99 | 0.99 | 0.45 | 0.12 | 0.53 | 0.21 | 265 to 266
5 | CCCCNC1=C2C(=NC1=O)c1cccc3c(Oc4ccc(C(C)C)cc4)ccc2c13 [Compound 11, 9-Butylamino-3-(4-isopropyl-phenoxy)-acenaphtho[1,2-b]pyrrol-8-one] | 112 | 46 | 0.3 | 2 | 0.9 | 3 | 4200 | > 50000 | 0.99 | 0.99 | 0.57 | 0.22 | 0.70 | 0.34 | 243 to 244
